Laboratory results from patent US20150164781A1, “Personal Care Products Containing Extracts of Chinese Lantern (Physalis alkekengi)” (Kemin Industries, Inc., priority 2013, published 2015).

Assay: Microtiter plate DPPH antioxidant assay
Conditions: 0.05 mg/mL DPPH, five minutes at 25° C., absorbance 517 nm; from polynomial regression
Method: HPLC grade reagent alcohol was obtained from Fisher Scientific, catalog number A995-4. 2,2-Diphenyl-1-picrylhydrazyl (DPPH) was from Fisher Scientific, catalog number AA4415003. Trolox was from Fisher Scientific, catalog number 05-402-25. Test material was prepared as in Example 1 (LumiSalisTM SE lot 592142P5, 592142P8 and 592142P9). Absorbance was measured using a Molecular Devices SpectraMax M5e plate reader (KH51-001) with a clear, flat-bottom 96-well plate, […] Science […] catalog number CC plate-PS-965-F-C-S. Masses were measured with a Mettler Toledo analytical balance (Model X5204). […] The controls and samples were all plated in triplicate and the average absorbance value was used for results calculations. The plate was shaken and incubated at 25° C. in the microplate reader for five minutes. The absorbance was measured at 517 nm. The sample concentrations (x-axis) are plotted against their respective relative average absorbance value (subtracted the average absorbance of the background from the average absorbance) at 517 nm (y-axis) and the best fit line (a polynomial fit) is calculated. The […] (50% inhibition) of each control and sample were calculated based on the polynomial regression line equation.

**Q.** Which “IC50 on DPPH assay” value does the source give for Cc1c(C)c2c(c(C)c1O)CCC(C)(C(=O)O)O2 (stereo not shown) [trolox, Trolox] here?
**A.** 0.0010%
